Source: patent US8486898B2, “Compounds and method for inhibiting the activity of gelatinase and collagenase” (Taipei Medical University (TMU), priority 2010, dated 2013)
Several values for one entry are separate records, joined by “and”; a condition that tells them apart may be missing. Equal values may be shown once.

Assays:
Collagenase type IV = experiment: Assay of Collagenase (DQ-gelatin fluorescence); assay type: biochemical; conditions: DQ-gelatin substrate
From the text: Collagenase type IV and DQ-gelatin was applied in this experiment, where DQ^198 (EnzChek Gelatinase/Collagenase Assay Kit, E-12055) is a kind of fluorescent material, which can bonded with gelatin to form DQ-gelatin. […] Thus, the principle of this experiment is that the activity of collagenase is examined by measuring emission intensity of DQ fluorescent as that the chemical bonding between DQ-gelatin can be enzymatically digested by collagenase.
The fluorescence intensity can be measured in a florescence micro-plate reader equipped with standard fluoresce in filters. Digested product from the DQ-gelatin and DQ collagen substrate has absorption wavelength at 495 nm and fluorescence emission wavelength at 515 nm. Therefore, the activity of collagenase can be determined when the fluorescence emission intensity at 515 nm larger than the blank. In other word, the resulting fluorescence emission intensity would decrease at 515 nm if the collagenase inhibitors were applied. The results of collagenase assay are provided on Table 7, and all values are present as Mean±S.E.M.

pro MMP-2 = experiment: Gelatin zymography of HT-1080 supernatants, pro MMP-2; assay type: cell-based, human; conditions: HT-1080 supernatant; for Inhibitory effectiveness (%) Pro MMP-2: 24 h; for IC50: gelatin zymography
From the text: (§1) HT-1080 cell line (ATCC:CCL-121) is a human skin fibroblasts tumor, which is a kind of adherent cell lines, secreting gelatinase, MMP-2 and MMP-9, to extracellular space.
(§2) Before carrying out any experimental process of HT-1080 cell lines, in order to enable HT-1080 cells to secrete more MMP-2 and MMP-9 to extracellular space, the medium RPMI-1640 containing 0.5% FBS (without phenol red) was applied when conducting the subcultivation process. After centrifugation, the medium RPMI-1640 containing only 0.5% FBS was added into centrifugal vials to resuspend the cells, and 20 μL of cell suspension solution was transferred into eppendorfs to mixed with 20 μL Trypan blue for cell dyeing. Finally, calculation of the cell concentration was accomplished by using hemocytometer through optical microscope.
(§3) Suitable amount of the medium RPMI-1640 (based on the cell concentration obtained previous) containing only 0.5% FBS (without phenol red) was applied into the remaining the cell suspension solution, as the resulting concentration of the cell suspension solution around 5×10^5 cells/mL. Afterwards, 500 μL of cell suspension solutions was transferred onto 24-well cell culture plates, followed by 24 hours incubation at 37° C. for the further experiments.
(§4) To evaluation the inhibitory effectiveness of gelatinase of 4GX and 4G, a gelatin zymography is needed to be conducted.
(§5) The cell suspension solution (with concentration about 5×10^5 cells/mL) of the previous cell pre-treatment process was placed to a 24-well cell culture plates for 24 hours of incubation at 37° C. Subsequently, 1 μL of the solutions, containing 4GX and 4G, in different concentrations from 10 to 100 μM (10, 20, 50, 100 μM) were applied into each well respectively as vehicle controls, 1 μL of catechin in concentration of 100 μM was applied into the well as a positive control, whereas the well applied without any compounds is as blank, followed by 24 hours of incubation at 37° C. Afterwards, the plate was placed into ice to terminate the reaction, the supernatant of each well were taken out separately for the further experiments.
(§6) Supernatants and two volume of a sample loading dye (500 mM Tris-HCL, 25% Glycerol, 10% SDS, 0.32% Bromophenol blue, pH 6.8) and one volume of a dye were mixed together to use as the indicator of running end point. Afterwards, the enzyme activity was analyzed by polyacrylamide gel electrophoresis (PAGE).
(§7) 1% of gelatin and 10% of polyacrylamide were contained in the gel of PAGE, where gelatin acts as the substrate for gelatinase (pro MMP-2, MMP-2 and pro MMP-9). The running buffer was 25 mM Tris-base, 192 mM […] and 0.1% sodium dodecyl sulfate (SDS), pH 8.3, and the power supply was 125 V/80 mA.
(§8) Following the electrophoresis, the gel was washed with 2.5% Triton X-100 at 24° C. twice in 30 minutes to remove the dye and SDS from the gel. Afterwards, the gel was incubated with a reacting buffer (50 mM Tris-base, 200 mM NaCl, 5 mM CaCl2 and 0.02% Brij 35, pH 7.5) at 37° C. for 24 hours in a thermostatic cabinet, enabling gelatinase enzymatically react with gelatin. The fixing solution (7% acetic acid and 40% methanol) was subsequently applied to the gel for 30 minutes, in order to secure the proteins onto the gel. After 30 minutes, the gel was stained with Brilliant Blue G-Colloidial, and then destained with the destain solution (10% acetic acid and 40% methanol) for visualization of the gelatinase reactive positions against the background of the gel.
(§9) Finally, the gel was then analyzed by image analysis system (Vilber Lounmat, France), and the analysis software was Bio-1 Dversion 99. Setting the blank as reference, setting as 1, and the other groups are presented in relative values in contrast to blank.
(§10) The formula for calculating the inhibitory effectiveness is presented below. The results of gelatin zymography are provided on Table 6, and all values are presented as Mean±S.E.M. (the values of blank−vehicle controls)×100%

MMP-2 = experiment: Gelatin zymography of HT-1080 supernatants, MMP-2; assay type: cell-based, human; conditions: HT-1080 supernatant; for Inhibitory effectiveness (%) MMP-2: 24 h; for IC50: gelatin zymography
From the text: as §1, §2, §3, §4, §5, §6, §7, §8, §9, §10

pro MMP-9 = experiment: Gelatin zymography of HT-1080 supernatants, pro MMP-9; assay type: cell-based, human; conditions: HT-1080 supernatant; for Inhibitory effectiveness (%) pro MMP-9: 24 h; for IC50: gelatin zymography
From the text: as §1, §2, §3, §4, §5, §6, §7, §8, §9, §10

HT-1080 cell lines = experiment: MTT cell viability assay; assay type: cell-based, human; conditions: HT-1080, 22 h + 2 h MTT, blank = 100, mean ± S.E.M.
From the text: as §1, §2, §3
To test the cytotoxicity of 4GX and 4G to HT-1080 cell lines, the cell viability assay need to be conducted. MTT cell viability assay was chosen for this experiment.
The principle of a cell viability assay is the conversion of a yellow tetrazolium salt (MTT; 3-(4,5-Dimethylthiazol-2-yl)-2,5-diphenyl tetrazolium bromide) into a purple product formazan via […] in intact mitochondria, where formazan can be dissolved in dimethylsulfoxide (DMSO). Thus, the increasing yield of resulting product formazan stands for increasing the percentage of cell vitality.
The cell suspension solution (with concentration about 5×10^5 cells/mL) of the previous cell pre-treatment process was placed to a 24-well cell culture plates with 24 hours of incubation under 5% of CO2/air at 37° C. in 70% of humidity, in order to allow cells to grow adherent on the well. After 24 hours of incubation, 1 μL of the solutions containing chemical compounds, 4GX and 4G, prepared in different concentrations (5-100 μM) were applied into each well respectively as vehicle controls, whereas the well applied without any chemical compounds as blank. Finally, the 24-well cell culture plate was placed in incubator for 22 hours of incubation.
Subsequently, the following steps need to avoid the light. After 22 hours of incubation, 50 μL of 5.5 mg/mL MTT was applied in each well for 2 hours of incubation at 37° C. Afterwards, the supernatant was removed from 24-well cell culture plates, and 400 μL DMSO was applied to dissolve the purple product formazan for 15 minutes by shaker at 50 rpm. 150-200 μL of the solution were taken out from each well to examine the adsorption value by ELISA at wavelength 550 nm.
The formula for calculation of cell vitality is presented following: (Adsorption value of vehicle control/blank)×100%

[1] = Transdermal penetration test, Franz-type diffusion cell; assay type: in vitro ADME, mice; conditions: for Average (μg) amount of 4G in the skins: average of three
From the text: Franz-type diffusion cell is the apparatus for this experiment, where its structure as a set of vertical double-diffusion and detachable glass containers. The upper donor chamber is a hollow cylindrical for the sample injection, and the bottom of the upper donor chamber has a contacting surface. The lower receptor chamber is double-layered hollow cylindrical diffusion container, where the inner layer of the receptor chamber made of glass contains a fluid for sampling, the outer layer of the receptor chamber is filled with circulating water kept at 37±1° C. for the human body simulation. The contact area between the donor chamber and the receptor chamber is 0.785 cm^2 (the actual penetration area), and the intermediate is fixed with nude and white mice (all three) skins (epidermis facing upwards) by metal clips as the in vitro transdermal penetration barriers.
The experimental method is presented below. First, 4G was dissolved in 30 wt % propylene glycol aqueous solution, followed transferring 0.5 mL of the aqueous solution (containing 0.25 mg) of 4G into the donor chamber of the Franz-type diffusion cell, and top of the open-ended donor chamber was covered with Parafilm® tightly, and the inner receptor chamber was filled with 5.5 mL of the buffer solution (30 wt % ethanol, phosphate buffer solution, pH 7.4), with continuously stirring at 600 rpm. 0.3 mL of the buffer solution was respectively sampled at time points of 1, 2, 4, 6, 8, 10, 12, 24, 36, and 48 hours, and with complete replacement of 0.3 mL of the buffer solution to keep fluid in the diffusion cell the same volume. Finally, the final compound of 4G accumulated in the fluid of the receptor chamber, was analyzed by liquid chromatography tandem mass spectrometry (LC-MS) to investigate the amount of the 4G penetrating through skins and reaching to the blood vessel,
After completing the previous experimental step, the compound, 4G, on the surface of nude and white mice skin were washed with deionized water. Afterwards, the skins were trimmed into the circles with diameter equal to the donor chamber, and following record the skin weight. The skins then placed in homogenizer with 1 mL alcohol at speed 300 rpm for 5 minutes, and followed with centrifugation process at 10000 rpm for 5 minutes. The supernatant was filtered by 0.45 μm PVDF and quantified the content of 4G by LC-MS.

c1cnc2c(c1)ccc1cccnc12 [1, 10-phenanthroline, reference compound]
Inhibitory effectiveness % (collagenase) (Collagenase type IV; 20 μM): 12.80% | Inhibitory effectiveness % (collagenase) (Collagenase type IV; 40 μM): 38.41%

O=C(OC[C@H]1O[C@@H](OC(=O)c2cc(O)c(O)c(O)c2)[C@H](OC(=O)c2cc(O)c(O)c(O)c2)[C@@H](OC(=O)c2cc(O)c(O)c(O)c2)[C@@H]1O)c1cc(O)c(O)c(O)c1 [4G, 1,2,3,6-tetra-O-galloyl-β-D-glucose]
Inhibitory effectiveness % (collagenase) (Collagenase type IV; 20 μM): 50% and 52.12% | Inhibitory effectiveness % (collagenase) (Collagenase type IV; 40 μM): 61.73% | Inhibitory effectiveness (%) Pro MMP-2 (pro MMP-2; 10 μM): 10.13% | Inhibitory effectiveness (%) Pro MMP-2 (pro MMP-2; 20 μM): 16.80% | Inhibitory effectiveness (%) Pro MMP-2 (pro MMP-2; 50 μM): 30.13% | Inhibitory effectiveness (%) Pro MMP-2 (pro MMP-2; 100 μM): 39.40% | IC50 (pro MMP-2): 99.6 µM | Inhibitory effectiveness (%) MMP-2 (MMP-2; 10 μM): 29.93% | Inhibitory effectiveness (%) MMP-2 (MMP-2; 20 μM): 48.07% | Inhibitory effectiveness (%) MMP-2 (MMP-2; 50 μM): 73.27% | IC50 (MMP-2): 23 µM | Inhibitory effectiveness (%) pro MMP-9 (pro MMP-9; 10 μM): 18.73% | Inhibitory effectiveness (%) pro MMP-9 (pro MMP-9; 20 μM): 28.70% | Inhibitory effectiveness (%) pro MMP-9 (pro MMP-9; 50 μM): 44.13% | Inhibitory effectiveness (%) pro MMP-9 (pro MMP-9; 100 μM): 53.50% | IC50 (pro MMP-9): > 100 µM | Vitality (%) (HT-1080 cell lines; 10 μM): 93.45 ± 4.91% | Vitality (%) (HT-1080 cell lines; 20 μM): 87.30 ± 1.93% | Vitality (%) (HT-1080 cell lines; 50 μM): 93.06 ± 4.41% | Vitality (%) (HT-1080 cell lines; 100 μM): 87.81 ± 7.83% | accumulated amounts of 4G of the fluid in the receptor chamber ([1]; nude and white mice skins, sampled 1 to 48 hours, LC-MS): nearly zero | Percentage of 4G in the mouse skins ([1]; nude mice skin): 27.84% | Average (μg) amount of 4G in the skins ([1]; nude mice skin): 1.17 ± 0.21 µg | The amount of 4G in the skins ([1]; nude mice skin, single samples, 0.25 mg in donor chamber, after 48 hours): 1.42 µg and 1.02 µg and 1.09 µg | Percentage of 4G in the mouse skins ([1]; white mice skin): 74.84% | Average (μg) amount of 4G in the skins ([1]; white mice skin): 6.07 ± 2.43 µg

O=C(OCC1OC(OC(=O)c2cc(O)c(O)c(O)c2)C(OC(=O)c2cc(O)c(O)c(O)c2)C(OC(=O)c2cc(O)c(O)c(O)c2)C1OC(=O)c1ccc(O)cc1)c1cc(O)c(O)c(O)c1 [4GX, 1,2,3,6-tetra-O-galloyl-4-O-(4-hydroxybenzoyl)-β-D-glucopyranoside]
Inhibitory effectiveness (%) Pro MMP-2 (pro MMP-2; 10 μM): 15.83% | Inhibitory effectiveness (%) Pro MMP-2 (pro MMP-2; 20 μM): 31.53% | Inhibitory effectiveness (%) Pro MMP-2 (pro MMP-2; 50 μM): 62.30% | IC50 (pro MMP-2): 30 µM | Inhibitory effectiveness (%) MMP-2 (MMP-2; 10 μM): 25.46% | Inhibitory effectiveness (%) MMP-2 (MMP-2; 20 μM): 63.57% | Inhibitory effectiveness (%) MMP-2 (MMP-2; 50 μM): 76.20% | IC50 (MMP-2): 16.3 µM | Inhibitory effectiveness (%) pro MMP-9 (pro MMP-9; 10 μM): 3.80% | Inhibitory effectiveness (%) pro MMP-9 (pro MMP-9; 20 μM): 15.83% | Inhibitory effectiveness (%) pro MMP-9 (pro MMP-9; 50 μM): 32.17% | Inhibitory effectiveness (%) pro MMP-9 (pro MMP-9; 100 μM): 45.47% | IC50 (pro MMP-9): > 100 µM | Vitality (%) (HT-1080 cell lines; 10 μM): 97.18 ± 6.52% | Vitality (%) (HT-1080 cell lines; 20 μM): 100.78 ± 4.06% | Vitality (%) (HT-1080 cell lines; 50 μM): 105.48 ± 2.18% | Vitality (%) (HT-1080 cell lines; 100 μM): 94.31 ± 9.76%

catechin [reference compound]
Inhibitory effectiveness (%) Pro MMP-2 (pro MMP-2; 100 μM): 56.30% and 72.97% | Inhibitory effectiveness (%) MMP-2 (MMP-2; 100 μM): 86.77% and 85.00% | Inhibitory effectiveness (%) pro MMP-9 (pro MMP-9; 100 μM): 64.30% and 76.07%
